Data from patent US8709445B2, “Vaccination with killed but metabolically active (KBMA) protozoans with toll-like receptor agonists” (priority 2007, dated 2014).
“Also recorded” adds a separate entry of the source.

Experiments:
Leishmania chagasi = experiment: In vitro luciferase assay of parasite metabolic activity after S-59 and UVA; assay type: cell-based
Method: The L. chagasi strain (MHOM/BR/00/1669), originally isolated from a patient with visceral leishmaniasis in Northeast Brazil, was maintained by serial intracardiac injection in outbred male golden hamsters. Virulent amastigotes were isolated from hamster spleens removed from animals infected approximately 3 months prior to sacrifice. Promastigotes were cultured in hemoflagellate minimal essential medium (HOMEM) at 26° C. and were used for vaccination or challenge within one month of harvest from the hamsters. Killed But Metabolically Active (KBMA) promastigotes were prepared by incubating late-log or stationary phase organisms in amotosalen (S-59) 100 nM for one hour while shaking at room temperature, followed by cross-linking of DNA using UVA irradiation of aliquots of 2 ml of cells in 6 well plates in an Intercept Illuminator (Cerus Corporation). Radiation dose was 5.4 J/cm^2. Heat-killed organisms were prepared by incubating in a 100° C. bath for 10 minutes. Transgenic firefly luciferase expressing L. chagasi and L. major were kindly provided by Dr. Beverley. For CFSE-based flow cytometry experiments, promastigotes were stained with CFSE at 5 μM and, shaken at 37° C. for 10 minutes. Parasites were washed three times with PBS and then cultured at an initial concentration of 5×10^6 per ml in HOMEM for in vitro experiments or injected into mice in 200 μL, of PBS at a concentration of 5×10^8 per ml.
Serial measures of parasite luciferase activity were made using a Sirius Single Tube Luminometer (Berthold Detection Systems). Aliquots of cultured organisms were taken daily and combined with 5× reporter lysis buffer per the manufacturer's instructions, and frozen at −80° C. All samples were then snap-thawed at 37° C. on the day of assay. 50 μl samples from each aliquot were combined with 100 μl of luciferin and luminescence was quantified with the luminometer in relative luminsescence units (RLU).
A mouse visceral leishmaniasis model employing Leishmania chagasi expressing firefly luciferase was used to test the susceptibility of a eukaryotic pathogen to in vitro inactivation?). L. chagasi were treated with varying doses of S-59 for 1 hour and then exposed to 5.4 J/cm2 UVA using a commercial illuminator which delivers tightly metered UVA doses to a shaking flask of organisms. This UVA dose was determined based on prior experience with Listeria. After irradiation with UVA, parasites were kept in culture and assayed at various time points for luciferase expression as a measure of metabolic activity. […] To determine if the S-59 induced decline in luciferase activity was associated with an inability to replicate, live L. chagasi promastigotes were stained with the intracellular dye CFSE and monitored for 1 week in culture.

L. chagasi promastigotes = experiment: CFSE flow cytometry of promastigote replication in culture; assay type: cell-based, Leishmania chagasi; settings: 100 nM S-59 and 5.4 Joules/cm^2 UVA; days 1-7 in culture
Method: The L. chagasi strain (MHOM/BR/00/1669), originally isolated from a patient with visceral leishmaniasis in Northeast Brazil, was maintained by serial intracardiac injection in outbred male golden hamsters. Virulent amastigotes were isolated from hamster spleens removed from animals infected approximately 3 months prior to sacrifice. Promastigotes were cultured in hemoflagellate minimal essential medium (HOMEM) at 26° C. and were used for vaccination or challenge within one month of harvest from the hamsters. Killed But Metabolically Active (KBMA) promastigotes were prepared by incubating late-log or stationary phase organisms in amotosalen (S-59) 100 nM for one hour while shaking at room temperature, followed by cross-linking of DNA using UVA irradiation of aliquots of 2 ml of cells in 6 well plates in an Intercept Illuminator (Cerus Corporation). Radiation dose was 5.4 J/cm^2. […]
A mouse visceral leishmaniasis model employing Leishmania chagasi expressing firefly luciferase was used to test the susceptibility of a eukaryotic pathogen to in vitro inactivation?). […] This UVA dose was determined based on prior experience with Listeria. […] To determine if the S-59 induced decline in luciferase activity was associated with an inability to replicate, live L. chagasi promastigotes were stained with the intracellular dye CFSE and monitored for 1 week in culture.

L. chagasi = assay type: in vivo, Leishmania chagasi; settings: for protection (reduction in liver parasite load): pilot experiment, combination of subcutaneous KBMA-LC and topically applied TLR agonist
Method: On the day prior to each vaccination, mice were anesthetized by intraperitoneal injection of 0.2 ml a solution of ketamine 9.1 mg/ml and xylazine 0.73 mg/ml. A 2×3 cm patch of fur in the dorsal cervical area was shaved, and 50 mg of adjuvant cream—either imiquimod 5% cream or appropriate vehicle (3M Pharmaceuticals)—was applied topically to the shaved area. On the day of immunization, mice were anesthetized as above. Unfractionated late-log to stationary phase promastigotes (live or KBMA) were spun at 2000 g for 10 minutes, resuspended in PBS, counted on a Neubauer hemocytometer, and volume-adjusted to a final concentration of 10^8 organisms/ml. One hundred micoliters of the appropriate parasite suspension (10^7 organisms) or 100 μl of PBS for controls was subcutaneously injected into the dorsal-cervical area of anesthetized mice using a 28-gauge needle. Adjuvant cream was then applied at the shaved skin site as above. On the day after immunization, adjuvant cream was once again applied topically as above on unanesthetized mice. For each experiment, mice were immunized three times at two-week intervals. Two weeks after the final immunization, mice were challenged by intravenous injection with 10^7 unfractionated late-log to stationary phase promastigotes in 0.2 ml of PBS.
Vaccinated mice were sacrificed by CO2 inhalation 4 weeks after intravenous challenge. Livers and spleens were weighed. Impression smears on glass slides were made from dissected spleen and liver tissue and were then methanol-fixed and amastigotes were detected with Giemsa stain. Organ parasite load was scored by direct microscopy and rendered in Leishman-Donavan Units (LDU), defined as number of parasites divided by number of mammalian cells multiplied by the organ mass in milligrams. At least 500 mammalian cells or 500 parasites were counted by a scorer blinded to the vaccination groups.

splenocytes = experiment: Luminex cytokine production in splenocytes from immunized mice; assay type: in vivo, BALB/c mice
Method: FIG. 11C: Luminex quantitation of cytokine production in splenocytes from L. chagasi immunized BALB/c mice with or without adjuvant 5% imiquimod. Mice were immunized three times at two week as in FIG. 10. Two weeks after the final vaccination, animals were sacrificed and 10^6 splenocytes from each were cultured for 66 hours in either in the presence of live L. chagasi. Supernatants from these cultures were frozen and then subsequently thawed and analyzed by the luminex method using antibodies and antibody coated beads specific for the indicated cyotokines. Bars show concentration of the relevant cytokine in pg/ml+/−SEM.
In a parallel experiment, groups of mice were vaccinated and boosted twice as described above. Splenocytes were harvested from these animals 2 weeks after the third vaccination. Splenocytes were then stimulated with either live LC promastigotes or soluble L. chagasi antigen (SLA) for 66 hours in culture and supernatants were harvested.

SMILES | time by which all detectable metabolic activity was abolished (Leishmania chagasi; 10^7 promastigotes, 100 nM S-59 and 5.4 Joules/cm^2 UVA) [weeks] | luciferase activity by day 21 (Leishmania chagasi; 100 nm S-59 and UVA, culture inoculated at 10^7 per ml) | effect of higher doses of S-59 on luciferase activity (Leishmania chagasi; doses higher than 100 nM, with UVA, data not shown) | S-59 dose leading to breakthrough outgrowth of parasites (Leishmania chagasi; with 5.4 J/cm2 UVA, data not shown) | replication of CFSE stained promastigotes (per parasite fluorescence) (L. chagasi promastigotes) | effect of adjuvant only (L. chagasi; Example 3, imiquimod 5% without whole cell vaccine (PBS)) | effect of adjuvant cream compared to control vehicle cream (L. chagasi; Example 3, topical 5% cream in each vaccination group) | protection (reduction in liver parasite load) (L. chagasi) [%] | pattern of cytokine expression, whole cell vaccines with adjuvant versus vehicle (splenocytes; imiquimod 5% with whole cell vaccines) | cytokine production, PBS with adjuvant versus PBS with vehicle (splenocytes; imiquimod 5% without whole cell vaccine)
Cc1oc2c(C)c3oc(=O)cc(C)c3cc2c1COCCN [S-59, amotosalen] | ≤ 3 | approaches baseline luminescence from PBS | more rapid decline in luciferase activity | lower than 50 nM | no such diminution; also recorded: arrests replication | – | – | – | – | –
CC(C)Cn1cnc2c(N)nc3ccccc3c21 [imiquimod, 1-isobutyl-1H-imidazo[4,5-c]quinolin-4-amine] | – | – | – | – | – | trend towards a protective effect | additional protection | 68 | increased IFN-γ but decreased IL-10, IL-4, and IL-5 | no increase in cytokine production
CCOCc1nc2c(N)nc3ccccc3c2n1CC(C)(C)O [resiquimod, 4-Amino-2-(ethoxymethyl)-a,a-dimethyl-1H-imidazo[4,5-c]quinoline-1-ethanol] | – | – | – | – | – | – | – | 87 | – | –
